Results: ChEMBL document CHEMBL4619712, “Double-component diazeniumdiolate derivatives as anti-cancer agents” (Bioorg Med Chem, 2020)
The source made the active and inactive calls. The rule behind the calls is not given here.

How the values were obtained:
CCRF-CEM [1] = assay: Induction of apoptosis in human CCRF-CEM cells assessed as viable cells at 8 uM after 72 hrs by Annexin V/propidium iodide staining based flow cytometry (reference value: 90.4%); type: functional; settings: read-out: Activity
CCRF-CEM [2] = assay: Induction of apoptosis in human CCRF-CEM cells assessed as early apoptotic cells at 8 uM after 72 hrs by Annexin V/propidium iodide staining based flow cytometry (reference value: 0.87%); type: functional
CCRF-CEM [3] = assay: Induction of apoptosis in human CCRF-CEM cells assessed as late apoptotic cells at 8 uM after 72 hrs by Annexin V/propidium iodide staining based flow cytometry (reference value: 8.60%); type: functional
CCRF-CEM [4] = assay: Induction of apoptosis in human CCRF-CEM cells assessed as necrotic cells at 16 uM after 72 hrs by Annexin V/propidium iodide staining based flow cytometry (reference value: 0.11%); type: functional
CCRF-CEM [5] = assay: Induction of apoptosis in human CCRF-CEM cells assessed as viable cells at 16 uM after 72 hrs by Annexin V/propidium iodide staining based flow cytometry (reference value: 90.4%); type: functional; settings: read-out: Activity
CCRF-CEM [6] = assay: Induction of apoptosis in human CCRF-CEM cells assessed as early apoptotic cells at 16 uM after 72 hrs by Annexin V/propidium iodide staining based flow cytometry (reference value: 0.87%); type: functional
CCRF-CEM [7] = assay: Induction of apoptosis in human CCRF-CEM cells assessed as late apoptotic cells at 16 uM after 72 hrs by Annexin V/propidium iodide staining based flow cytometry (reference value: 8.60%); type: functional
CCRF-CEM [8] = assay: Induction of apoptosis in human CCRF-CEM cells at 8 uM by Annexin V-FITC/propidium iodide staining based flow cytometry; type: functional, cell-based; settings: TDE = time-dependent effect
CCRF-CEM [9] = assay: Induction of apoptosis in human CCRF-CEM cells after 72 hrs by Annexin V-FITC/propidium iodide staining based flow cytometry; type: functional, cell-based
CCRF-CEM [10] = assay: Cell cycle arrest in human CCRF-CEM cells assessed as accumulation of cells at sub G1 phase at 8 uM after 24 hrs by RNAse/propidium iodide staining based flow cytometry (reference value: 0.1%); type: functional
CCRF-CEM [11] = assay: Cell cycle arrest in human CCRF-CEM cells assessed as accumulation of cells at G1/G0 phase at 8 uM after 24 hrs by RNAse/propidium iodide staining based flow cytometry (reference value: 28.3%); type: functional
CCRF-CEM [12] = assay: Cell cycle arrest in human CCRF-CEM cells assessed as accumulation of cells at S phase at 8 uM after 24 hrs by RNAse/propidium iodide staining based flow cytometry (reference value: 46%); type: functional
CCRF-CEM [13] = assay: Cell cycle arrest in human CCRF-CEM cells assessed as accumulation of cells at G2/M phase at 8 uM after 24 hrs by RNAse/propidium iodide staining based flow cytometry (reference value: 25.6%); type: functional
CCRF-CEM [14] = assay: Cell cycle arrest in human CCRF-CEM cells assessed as accumulation of cells at sub G1 phase at 8 uM after 48 hrs by RNAse/propidium iodide staining based flow cytometry (reference value: 0.1%); type: functional
CCRF-CEM [15] = assay: Cell cycle arrest in human CCRF-CEM cells assessed as accumulation of cells at G1/G0 phase at 8 uM after 48 hrs by RNAse/propidium iodide staining based flow cytometry (reference value: 28.3%); type: functional
CCRF-CEM [16] = assay: Cell cycle arrest in human CCRF-CEM cells assessed as accumulation of cells at S phase at 8 uM after 48 hrs by RNAse/propidium iodide staining based flow cytometry (reference value: 46%); type: functional
CCRF-CEM [17] = assay: Cell cycle arrest in human CCRF-CEM cells assessed as accumulation of cells at G2/M phase at 8 uM after 48 hrs by RNAse/propidium iodide staining based flow cytometry (reference value: 25.6%); type: functional
CCRF-CEM [18] = assay: Cell cycle arrest in human CCRF-CEM cells assessed as accumulation of cells at sub G1 phase at 8 uM after 72 hrs by RNAse/propidium iodide staining based flow cytometry (reference value: 0.1%); type: functional
CCRF-CEM [19] = assay: Cell cycle arrest in human CCRF-CEM cells assessed as accumulation of cells at G1/G0 phase at 8 uM after 72 hrs by RNAse/propidium iodide staining based flow cytometry (reference value: 28.3%); type: functional
CCRF-CEM [20] = assay: Cell cycle arrest in human CCRF-CEM cells assessed as accumulation of cells at S phase at 8 uM after 72 hrs by RNAse/propidium iodide staining based flow cytometry (reference value: 46%); type: functional
CCRF-CEM [21] = assay: Cell cycle arrest in human CCRF-CEM cells assessed as accumulation of cells at G2/M phase at 8 uM after 72 hrs by RNAse/propidium iodide staining based flow cytometry (reference value: 25.6%); type: functional
[22] = molecular target: c-Jun N-terminal kinase, JNK (Homo sapiens) (UniProt P45983+P53779+P45984); assay: Activation of JNK in human CCRF-CEM cells assessed as increase in phosphorylated JNK level at 8 uM incubated for 1 to 6 hrs by Western blot analysis; type: cell-based
CCRF-CEM [23] = assay: Induction of apoptosis in human CCRF-CEM cells assessed as decrease in Bcl-2 level after 72 hrs by western blot analysis; type: functional, cell-based
CCRF-CEM [24] = assay: Induction of apoptosis in human CCRF-CEM cells assessed as increase in Bax level at 8 uM by Western blot analysis; type: functional, cell-based; settings: TDE = time-dependent effect
CCRF-CEM [25] = assay: Induction of apoptosis in human CCRF-CEM cells assessed as increase in Bax level after 72 hrs by western blot analysis; type: functional, cell-based
[26] = molecular target: T1, MAP kinase p38 (Homo sapiens) (UniProt O15264+Q15759+Q16539+P53778); assay: Activation of p38 in human CCRF-CEM cells assessed as increase in p38 level at 8 uM incubated for 1 to 6 hrs by Western blot analysis; type: cell-based
[27] = molecular target: T1, MAP kinase p38 (Homo sapiens); assay: Activation of p38 in human CCRF-CEM cells assessed as increase in phosphorylated p38 level at 8 uM incubated for 1 to 6 hrs by Western blot analysis; type: cell-based

Q: With `O=[N+]([O-])c1ccc(O/N=[N+](\[O-])N2CCC(CN3CCN(/[N+]([O-])=N/Oc4ccc([N+](=O)[O-])cc4[N+](=O)[O-])CC3)CC2)c([N+](=O)[O-])c1` as the compound, how does the viability at 8 µM (CCRF-CEM [1]) read?
A: Its viability at 8 µM is 34.8%.

Q: And the Activity (CCRF-CEM [2])?
A: The Activity was 8.93%.

Q: And the Activity (CCRF-CEM [3])?
A: Its Activity is 56.2%.

Q: What about the Activity (CCRF-CEM [4]) of the same compound?
A: The Activity was 0.08%.

Q: What about the viability at 16 µM (CCRF-CEM [5]) of the same compound?
A: Its viability at 16 µM is 0.63%.

Q: And the Activity (CCRF-CEM [6])?
A: Its Activity is 3.64%.

Q: What about the Activity (CCRF-CEM [7]) of the same compound?
A: The Activity was 95.6%.

Q: What about the Activity (CCRF-CEM [8]) of the same compound?
A: The Activity was “Tde”.

Q: What about the Activity (CCRF-CEM [9]) of the same compound?
A: The Activity was “Dose-dependent effect”.

Q: What about the Activity (CCRF-CEM [10]) of the same compound?
A: The Activity was 3.5%.

Q: And the Activity (CCRF-CEM [11])?
A: The Activity was 24.5%.

Q: What about the Activity (CCRF-CEM [12]) of the same compound?
A: Its Activity is 26.3%.

Q: And the Activity (CCRF-CEM [13])?
A: Its Activity is 45.7%.

Q: What about the Activity (CCRF-CEM [14]) of the same compound?
A: Its Activity is 8.4%.

Q: And the Activity (CCRF-CEM [15])?
A: Its Activity is 28.9%.

Q: What about the Activity (CCRF-CEM [16]) of the same compound?
A: The Activity was 8.2%.

Q: What about the Activity (CCRF-CEM [17]) of the same compound?
A: Its Activity is 54.5%.

Q: What about the Activity (CCRF-CEM [18]) of the same compound?
A: The Activity was 7.5%.

Q: What about the Activity (CCRF-CEM [19]) of the same compound?
A: The Activity was 28.8%.

Q: And the Activity (CCRF-CEM [20])?
A: The Activity was 0%.

Q: What about the Activity (CCRF-CEM [21]) of the same compound?
A: The Activity was 63.7%.

Q: And the Activity [22]?
A: The Activity was “Active”.

Q: What about the Activity (CCRF-CEM [23]) of the same compound?
A: The Activity was “Dose-dependent effect”.

Q: And the Activity (CCRF-CEM [24])?
A: Its Activity is “Tde”.

Q: What about the Activity (CCRF-CEM [25]) of the same compound?
A: The Activity was “Dose-dependent effect”.

Q: And the Activity [26]?
A: The Activity was “Active”.

Q: What about the Activity [27] of the same compound?
A: Its Activity is “Active”.
